Read-outs that look alike come from different tables or passages of the source.
Legend:
[1] = pKa determination from fluorescence intensity as a function of pH; conditions: for pKa: 30 vol% methanol / 70 vol% phosphate buffer, pH 6
Text: (§2) Die Fluorophore werden in einem Gemisch aus 30 Vol.-% Methanol und 70 Vol.-% Phosphatpuffer gelöst und verschiedene pH-Werte zwischen 6 und 13 eingestellt. Die Messlösungen werden in eine Küvette gefüllt und die Fluoreszenzintensität mit einem Spektrophotometer gemessen. Die Fluoreszenzintensität wird als Funktion des pH-Wertes aufgetragen und aus dem Wendepunkt der Kurve der pKa-Wert ermittelt. […] Die Konzentration der Fluorophore beträgt jeweils 10⁻⁷ mol/l.

[2] = Fluorescence change between protonated and deprotonated form of the fluorophore; type: physicochemical; conditions: in Tetrahydrofuran, pH set with 1 M HCl or 1,0 M NaOH, fluorophore 10⁻⁷ mol/l
Text: Die Ergebnisse sind in Tabelle 2 angegeben.

[3] = Optical potassium determination with sensor membrane (decrease of fluorescence intensity); conditions: aqueous KCl, 1 ml/min, PVC membrane with Valinomycin
Procedure: a) Als Trägermaterial wird vorbehandeltes Glas verwendet. Runde Glasscheiben (Durchmesser 18 mm, Dicke 0,17 mm) werden eine Stunde in eine Lösung von 10 Vol-% Dimethyl-dodecylchlorsilan in Isopropanol getaucht. Danach wäscht man die Glasscheiben nacheinander mit je 200 ml Isopropanol, Ethanol und Methanol und trocknet 1 h bei 110 °C. Die hydrophobisierte Oberfläche weist eine verbesserte Haftung der Membranschicht auf. b) Herstellung der Beschichtungslösung. Die folgenden Bestandteile werden zusammen mit 1,5 ml Tetrahydrofuran in eine 2 ml Flasche gegeben und bis zur Lösung der Komponenten geschüttelt: • 1. 80 mg Polyvinylchlorid (Fluka, 81392) • 2. 160 mg Bis-(2-ethylhexyl)sebacat (Weichmacher) • 3. 5 mg Valinomycin • 4. 1,5 mg Kalium-tetrakis(4-fluorphenyl)borat • 5. 2 mg Fluorophor
c) Herstellung von beschichteten Glasträgern. Die Glasträger werden in der Kammer eines Schleuderbeschichtungsapparats (Optocoat OS 35var, Willer Company, CH-8484 Weisslingen) befestigt. Die Kammer wird mit 10 ml Tetrahydrofuran gespült und 2 min bei 3800 Umdrehungen/Minute rotiert. Danach werden 50 µl der jeweiligen Beschichtungslösung auf den Glasträger pipettiert und der Glasträger noch 10 sec rotiert. Man entfernt den mit einer Membran beschichteten Glasträger und trocknet ihn 10 min an der Luft. d) Spektrale Eigenschaften der Membranen. Die beschichteten Glasträger werden in einer optischen Zelle befestigt, in der die Membran mit der Messflüssigkeit in Berührung steht. Die Membran kann in der optischen Zelle optisch angeregt und die Fluoreszenzstrahlung gemessen werden. Die optische Zelle wird in ein Spektrofluorometer (Pekin-Elmer LS-50) gebracht und das Absorptions- und Emmissionsspektrum gemessen. Ferner wird die relative Fluoreszenzquantenausbeute gemäss der von Calvert und Pitts in Photochemistry, Verlag: John Wiley and Sons Inc., Seiten 799 bis 805 (1966) beschriebenen Methode mit Fluorescein als Standard bestimmt. Die Ergebnisse sind in Tabelle 1 angegeben. Tabelle 1:
(§1) Es wird die gleiche Versuchsanordnung wie in Beispiel B1d verwendet und die Absorptions- sowie Emmissionswellenlängen auf die entsprechenden Maxima der in der Membran eingesetzten Fluorophore eingestellt. Die Membran wird mit einer wässrigen KCl-Lösung definierter Konzentration in Kontakt gebracht, indem man die Lösung mit einer Geschwindigkeit von 1 ml/min durch die Zelle pumpt und die Änderung der Fluoreszenzintensität bestimmt. Vor der Messung und nach jeder Messung wird mit Kaliumionen-freien Pufferlösungen gespült und die Fluoreszenzintensität bestimmt, um die Basislinie festzulegen. Die Erniedrigung der Fluoreszenzintensität in Prozent bei der jeweiligen Kaliumkonzentration für den Fluorophor gemäss Beispiel A5 (Membran B1) sind in der Tabelle 3 angegeben.

[4] = Optical calcium determination with sensor membrane (decrease of fluorescence intensity); conditions: buffer pH 5, Polyurethan (Tecoflex) membrane with Kalzium Ionophor I
Procedure: as §1, with “angegeben. Tabelle 3:” for “angegeben.”
Es wird wie in Beispiel C1 verfahren und die Kalziumionenkonzentration mit einer Membran aus 2 mg Fluorophor gemäss Beispiel A5, 30 mg Kalziumionophor ((-)-(R,R)-N,N-[Bis(11-ethoxycarbonyl)undecyl]-N,N-4,5-tetramethyl-3,6-dioxaoctandia mid, Fluka Kalzium Ionophor I, Katalog Nr. 21192), 6 mg Kalium-tetrakis(4-chlorphenyl)borat, 75 mg Polyurethan (Tecoflex®), 160 mg Bis-2-ethylhexyl-sebacat als Weichmacher und 1 ml Tetrahydrofuran bestimmt. Der Sensor wird einer Pufferlösung bei pH 5 (0,02M NaOH und Essigsäure) unterschiedlichen Kalziumkonzentrationen ausgesetzt. Die Ergebnisse sind in Tabelle 7 angegeben.

[5] = Optical sodium determination with sensor membrane (decrease of fluorescence intensity); conditions: buffer pH 5, Polyurethan (Tecoflex) membrane with Natrium Ionophor V
Procedure: as §1, with “angegeben. Tabelle 3:” for “angegeben.”
Es wird wie in Beispiel C1 verfahren und die Natriumionenkonzentration mit einer Membran aus 2 mg Fluorophor gemäss Beispiel A5, 30 mg Natriumionophor (4-Octadecanoyloxymethyl-N,N,N,N-tetracyxlohexyl- 1 ,2-phenylendioxy-diacetamid, Fluka Natrium Ionophor V, Katalog Nr. 71738), 2 mg Kalium-tetrakis(4-chlorphenyl)borat, 75 mg Polyurethan (Tecoflex®), 160 mg Bis-2-ethylhexyl-sebacat als Weichmacher und 1 ml Tetrahydrofuran bestimmt. Der Sensor wird einer Pufferlösung bei pH 5 (0,1 Mol Tris-hydroxymethyl-aminomit-methan und 1M HCl) unterschiedlichen Natriumkonzentrationen ausgesetzt. Die Ergebnisse sind in Tabelle 6 angegeben.

[6] = 30% methanol phosphate buffer, pH 6
Text: as §2

SMILES | pKa [1] | Änderung Fluoreszenzintensität [2] | % Erniedrigung Fluoreszenzintensität ([3]; Kalium-Konzentration 0,1 mM) | % Erniedrigung Fluoreszenzintensität ([3]; Kalium-Konzentration 0,5 mM) | % Erniedrigung Fluoreszenzintensität ([3]; Kalium-Konzentration 1,0 mM) | % Erniedrigung Fluoreszenzintensität ([3]; Kalium-Konzentration 5,0 mM) | % Erniedrigung Fluoreszenzintensität ([3]; Kalium-Konzentration 10,0 mM) | % Erniedrigung Fluoreszenzintensität ([3]; Kalium-Konzentration 100,0 mM) | further results
CCCCCCC(=O)Nc1ccc2cc3ccc(NC(=O)CCCCCC)cc3nc2c1 | 10 | 24 Prozent |  |  |  |  |  |  | 
CCCCCCCCNc1ccc2cc3ccc(NCCCCCCCC)cc3nc2c1 [Beispiel A1, 3,6-Bis(n-octylamino)-acridin] | 10 | 44 Prozent | 5% | 15% | 25% | 39% | 45% | 75% | 
CCCCCCCCCCCCCCCCCCCCNc1ccc2cc3ccc(NCCCCCCCCCCCCCCCCCCCC)cc3nc2c1 [Beispiel A2, 3,6-Bis(n-eicosylamino)-acridin] | 11.1 | 41 Prozent |  |  |  |  |  |  | 

Continued, in another order:

pKa [1] | Änderung Fluoreszenzintensität [2] | SMILES | % Erniedrigung Fluoreszenzintensität ([3]; Kalium-Konzentration 0,1 mM) | % Erniedrigung Fluoreszenzintensität ([3]; Kalium-Konzentration 0,5 mM) | % Erniedrigung Fluoreszenzintensität ([3]; Kalium-Konzentration 1,0 mM) | % Erniedrigung Fluoreszenzintensität ([3]; Kalium-Konzentration 5,0 mM) | % Erniedrigung Fluoreszenzintensität ([3]; Kalium-Konzentration 10,0 mM) | % Erniedrigung Fluoreszenzintensität ([3]; Kalium-Konzentration 100,0 mM) | further results
10.3 | 33 Prozent | CCCCCCCCCCCCCCCCCCCCN=c1ccc2c(-c3ccccc3C(=O)O)c3ccc(N(CC)CC)cc3oc-2c1 [Beispiel A5] | 20% | 35% | 45% | 53% | 60% | 68% | % Erniedrigung Fluoreszenzintensität ([3]; Kalium-Konzentration 0,01 mM): 5%; % Erniedrigung Fluoreszenzintensität ([4]; Kalzium-Konzentration 0,1 mM): 26,5%; % Erniedrigung Fluoreszenzintensität ([4]; Kalzium-Konzentration 0,5 mM): 43,1%; % Erniedrigung Fluoreszenzintensität ([4]; Kalzium-Konzentration 0 mM): 0%; % Erniedrigung Fluoreszenzintensität ([4]; Kalzium-Konzentration 1,0 mM): 50,6%; % Erniedrigung Fluoreszenzintensität ([4]; Kalzium-Konzentration 3,0 mM): 61,0%; % Erniedrigung Fluoreszenzintensität ([4]; Kalzium-Konzentration 5,0 mM): 65,8%; % Erniedrigung Fluoreszenzintensität ([4]; Kalzium-Konzentration 7,0 mM): 68,1%; % Erniedrigung Fluoreszenzintensität ([4]; Kalzium-Konzentration 10,0 mM): 71,0%; % Erniedrigung Fluoreszenzintensität ([5]; Natrium-Konzentration 0 mM): 0%; % Erniedrigung Fluoreszenzintensität ([5]; Natrium-Konzentration 3 mM): 15%; % Erniedrigung Fluoreszenzintensität ([5]; Natrium-Konzentration 15 mM): 41%; % Erniedrigung Fluoreszenzintensität ([5]; Natrium-Konzentration 30 mM): 54%; % Erniedrigung Fluoreszenzintensität ([5]; Natrium-Konzentration 90 mM): 72%; % Erniedrigung Fluoreszenzintensität ([5]; Natrium-Konzentration 150 mM): 79%; % Erniedrigung Fluoreszenzintensität ([5]; Natrium-Konzentration 210 mM): 83%; % Erniedrigung Fluoreszenzintensität ([5]; Natrium-Konzentration 300 mM): 86%
 | 20 Prozent | CCCCCCCCN=c1ccc2c(-c3ccccc3C(=O)O)c3ccc(NCCCCCCCC)cc3oc-2c1 [Beispiel A6] | 36% | 41% | 43% | 48% | 52% |  | pKa-Wert [6]: 12,0
 | 15 Prozent | CCCCCCCCCCCCCCCCCC(=O)N=c1ccc2c(-c3ccccc3C(=O)O)c3ccc(N(CC)CC)cc3oc-2c1 [Beispiel A7] |  |  |  |  |  |  | pKa-Wert ([1]; 30 Vol.-% Methanol / 70 Vol.-% Phosphatpuffer, pH 6 to 13, fluorophore 10⁻⁷ mol/l, inflection point of curve): 10,1

From patent EP0623599A1 (CIBA-GEIGY AG, priority 1993, dated 1994)
